From US12618082B2, “Engineered muscle targeting compositions” (priority 2020, dated 2026)
“Also recorded” adds a separate entry of the source.

How the values were obtained:
[1] = target: T1, αV-containing integrin heterodimers (Mus musculus, UniProt P43406); test: Small molecule pan-αV integrin antagonist inhibition of transduction, mouse primary myotubes; type: cell-based; conditions: increasing concentrations of the antagonist; capsid named in the value
T1 construct: endogenous in cells; host or cells: mouse primary myotubes differentiated from C57BL/6J satellite cells
T1 sequence (P43406 31-1044): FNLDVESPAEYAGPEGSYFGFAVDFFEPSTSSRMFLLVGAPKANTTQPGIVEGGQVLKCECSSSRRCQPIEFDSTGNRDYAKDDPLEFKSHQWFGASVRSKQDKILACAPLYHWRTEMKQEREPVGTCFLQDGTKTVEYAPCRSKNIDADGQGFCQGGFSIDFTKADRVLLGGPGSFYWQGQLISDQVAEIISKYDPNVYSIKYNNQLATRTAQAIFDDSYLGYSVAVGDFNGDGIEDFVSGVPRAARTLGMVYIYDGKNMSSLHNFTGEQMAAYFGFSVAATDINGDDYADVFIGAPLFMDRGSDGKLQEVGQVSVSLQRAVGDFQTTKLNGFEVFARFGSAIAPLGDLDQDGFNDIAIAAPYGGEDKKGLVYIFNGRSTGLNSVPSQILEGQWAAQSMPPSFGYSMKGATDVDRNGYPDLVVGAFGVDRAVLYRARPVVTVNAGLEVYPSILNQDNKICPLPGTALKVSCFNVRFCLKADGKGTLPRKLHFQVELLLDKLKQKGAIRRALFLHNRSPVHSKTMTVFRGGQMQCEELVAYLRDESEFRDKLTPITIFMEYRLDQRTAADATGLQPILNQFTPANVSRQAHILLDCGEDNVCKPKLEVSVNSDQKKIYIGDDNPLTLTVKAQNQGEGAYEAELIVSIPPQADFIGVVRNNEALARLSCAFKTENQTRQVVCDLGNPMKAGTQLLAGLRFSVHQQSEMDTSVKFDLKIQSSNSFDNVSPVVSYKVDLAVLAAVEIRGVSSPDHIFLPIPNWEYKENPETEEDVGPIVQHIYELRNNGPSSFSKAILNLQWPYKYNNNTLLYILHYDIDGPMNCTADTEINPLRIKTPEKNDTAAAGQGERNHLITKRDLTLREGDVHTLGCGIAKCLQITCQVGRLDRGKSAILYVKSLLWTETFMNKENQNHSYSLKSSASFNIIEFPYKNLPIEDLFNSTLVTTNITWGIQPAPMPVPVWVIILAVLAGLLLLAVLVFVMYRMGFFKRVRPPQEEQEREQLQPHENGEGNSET
Method: (§1) Pan-alpha V integrin antagonists CWHM-12 and GLPG0187 (MedChem Express), or anti-αVβ6 antibody (ab77906, abcam) were diluted in DMEM containing 2% horse serum at the specified concentrations. Media was removed from differentiated myotubes and replaced with the diluted inhibitors, after which the myotubes were incubated on ice for 30 minutes to inhibit endocytosis. Following this incubation, AAV9-, MyoAAV-, or EMyoAAV-CK8-Nluc were added to the cells at 5E+3 vg/cell and the plates were transferred back to the tissue culture incubators. 24 hours after transduction, luciferase intensity was measured with the Nano-Glo Luciferase Assay (Promega).

[2] = target: T2, αV-containing integrin heterodimers (Homo sapiens, UniProt P06756); test: Small molecule pan-αV integrin antagonist inhibition of transduction, human primary myotubes; type: cell-based; conditions: increasing concentrations of the antagonist; capsid named in the value
T2 construct: endogenous in cells; host or cells: human primary skeletal muscle myotubes differentiated from Lonza myoblasts
Method: as §1

T2 sequence (P06756 31-889 limits assumed): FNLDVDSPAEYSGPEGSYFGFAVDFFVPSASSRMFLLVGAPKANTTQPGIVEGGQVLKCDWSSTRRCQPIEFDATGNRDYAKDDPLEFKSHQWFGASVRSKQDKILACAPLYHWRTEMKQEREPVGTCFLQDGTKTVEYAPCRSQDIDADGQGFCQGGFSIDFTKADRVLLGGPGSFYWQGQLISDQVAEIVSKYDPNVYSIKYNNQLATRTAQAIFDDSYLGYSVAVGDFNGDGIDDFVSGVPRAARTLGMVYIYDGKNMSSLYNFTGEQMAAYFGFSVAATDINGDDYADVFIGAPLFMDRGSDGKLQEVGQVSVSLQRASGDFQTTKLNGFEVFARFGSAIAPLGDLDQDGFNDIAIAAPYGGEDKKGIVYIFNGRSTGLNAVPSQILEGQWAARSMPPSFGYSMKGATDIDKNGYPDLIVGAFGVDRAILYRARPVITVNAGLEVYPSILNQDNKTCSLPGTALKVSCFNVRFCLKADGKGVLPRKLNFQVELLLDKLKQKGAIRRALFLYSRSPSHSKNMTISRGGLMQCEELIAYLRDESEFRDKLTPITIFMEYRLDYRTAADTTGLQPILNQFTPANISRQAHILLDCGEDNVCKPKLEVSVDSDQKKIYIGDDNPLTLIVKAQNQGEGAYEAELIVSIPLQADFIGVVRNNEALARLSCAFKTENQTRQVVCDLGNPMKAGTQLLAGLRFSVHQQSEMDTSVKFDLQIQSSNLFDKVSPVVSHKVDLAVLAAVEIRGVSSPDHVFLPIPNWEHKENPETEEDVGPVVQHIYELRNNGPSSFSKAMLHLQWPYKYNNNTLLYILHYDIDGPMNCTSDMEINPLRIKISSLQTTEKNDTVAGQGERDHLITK
T2 sequence (P06756 891-1048 limits assumed): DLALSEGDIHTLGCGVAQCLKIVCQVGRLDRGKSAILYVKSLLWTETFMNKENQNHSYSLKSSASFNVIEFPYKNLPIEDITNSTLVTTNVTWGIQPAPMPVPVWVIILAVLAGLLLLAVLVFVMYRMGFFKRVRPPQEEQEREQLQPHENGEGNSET

Row | Structure (SMILES) | effect of the pan-αV integrin antagonist on AAV transduction efficiency, mouse primary myotubes [1] | effect of the pan-αV integrin antagonist on AAV transduction efficiency, human primary myotubes [2]
1 | CC(C)(C)c1cc(Br)cc([C@H](CC(=O)O)NC(=O)CNC(=O)c2cc(O)cc(NC3=NCC(O)CN3)c2)c1 (stereo partly shown) [CWHM-12] | impeded MyoAAV 1A transduction in a dose-dependent manner | impeded MyoAAV 1A transduction in a dose-dependent manner
2 | COc1ccc(S(=O)(=O)N[C@@H](CNc2nc(C)nc(N3CCC(c4ccc5c(n4)NCCC5)CC3)c2C)C(=O)O)cc1 [GLPG-0187] | impeded MyoAAV 1A transduction in a dose-dependent manner | dose-dependent decrease in the transduction efficiency of EMyoAAV; also recorded: impeded MyoAAV 1A transduction in a dose-dependent manner; also recorded: dose-dependent decrease in the transduction efficiency of MyoAAV 2A; also recorded: dose-dependent decrease in transduction for all the 4 variants
